These results are taken from US6887896B1, “7-[(7-Alkoxy)-chrom-3-en-6-yl]-heptatrienoic acid and 7-[(3-alkoxy)-5,6-dihydronaphthalen-2-yl]-heptatrienoic acid derivatives having serum glucose reducing activity” (Allergan, Inc., priority 2003, dated 2005).

In test [1] the target is T1, RXRβ (UniProt P28704).
T1 sequence (P28704 1-520): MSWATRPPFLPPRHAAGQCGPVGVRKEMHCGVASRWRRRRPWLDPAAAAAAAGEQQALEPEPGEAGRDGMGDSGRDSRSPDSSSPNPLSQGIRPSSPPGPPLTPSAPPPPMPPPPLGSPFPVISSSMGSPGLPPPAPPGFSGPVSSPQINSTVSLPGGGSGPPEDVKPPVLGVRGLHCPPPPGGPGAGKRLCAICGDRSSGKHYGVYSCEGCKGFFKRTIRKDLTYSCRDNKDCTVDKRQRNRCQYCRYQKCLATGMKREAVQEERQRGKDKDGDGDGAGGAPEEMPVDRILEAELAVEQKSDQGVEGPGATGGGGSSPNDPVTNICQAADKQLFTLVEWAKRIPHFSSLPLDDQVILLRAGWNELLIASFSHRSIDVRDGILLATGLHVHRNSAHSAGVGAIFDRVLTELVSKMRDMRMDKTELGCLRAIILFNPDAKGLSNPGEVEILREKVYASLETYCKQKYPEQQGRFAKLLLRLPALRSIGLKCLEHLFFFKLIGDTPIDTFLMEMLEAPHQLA
The test is described as follows: ligand binding assay, RXRβ. Particulars: for Kd: Table 9 (Formula F), read-out: RXR β Kd; for Ki: read-out: RXR Bind Ki β. The text has this:
(§1) Specifically, one such assay is a chimeric receptor transactivation assay which tests for agonist-like activity in the R RAPE and RAR7 receptor subtypes, and which is based on work published by Feigner, P. L. and Holm, M (1989) Focus, 112 is described in detail in U.S. Pat. No. 5,455,265. The specification of U.S. Pat. No. 5,455,265 is hereby expressly incorporated by reference. A holoreceptor transactivation assay and a ligand binding assay which measure the antagonist/agonist like activity of the compounds of the invention, or their ability to bind to the several retinoid receptor subtypes, respectively, are described in published PCT Application No. WO WO93/11755 (particularly on pages 30-33 and 37-41) published on Jun. 24, 1993, the specification of which is also incorporated herein by reference. A detailed experimental procedure for holoreceptor transactivations has been described by Heyman et al. Cell 68, 397-406, (1992); Allegretto et al. J. Biol. Chem. 268, 26625-26633, and Mangelsdorf et al. The Retinoids: Biology, Chemistry and Medicine, pp 319-349, Raven Press Ltd., New York, which are expressly incorporated herein by reference. The results obtained in this assay are expressed in EC50 numbers, as they are also in the chimeric receptor transactivation assay. The results of the ligand binding assay are expressed in Ki numbers. (See Cheng et al. Biochemical Pharmacology Vol. 22 pp 3099-3108, expressly incorporated herein by reference.)
(§2) Generally speaking, in the tables disclosing the results of transactivation and binding assays the numbers in parentheses indicate efficacy as a percentage compared to the standard compound, (2E,4E,1′S,2′S)-3-methyl-5-[2′-methyl-2′-(5,5,8,8-tetramethyl-5,6,7,8-tetrahydro-naphthalen-2-yl)cyclopropyl]-penta-2,4-dienoic acid and the other numbers indicate the measured EC50 and K; in nanomolar concentration.

Test [2] has as its target T2, RARβ (Homo sapiens, UniProt P10826).
T2 sequence (P10826 1-455): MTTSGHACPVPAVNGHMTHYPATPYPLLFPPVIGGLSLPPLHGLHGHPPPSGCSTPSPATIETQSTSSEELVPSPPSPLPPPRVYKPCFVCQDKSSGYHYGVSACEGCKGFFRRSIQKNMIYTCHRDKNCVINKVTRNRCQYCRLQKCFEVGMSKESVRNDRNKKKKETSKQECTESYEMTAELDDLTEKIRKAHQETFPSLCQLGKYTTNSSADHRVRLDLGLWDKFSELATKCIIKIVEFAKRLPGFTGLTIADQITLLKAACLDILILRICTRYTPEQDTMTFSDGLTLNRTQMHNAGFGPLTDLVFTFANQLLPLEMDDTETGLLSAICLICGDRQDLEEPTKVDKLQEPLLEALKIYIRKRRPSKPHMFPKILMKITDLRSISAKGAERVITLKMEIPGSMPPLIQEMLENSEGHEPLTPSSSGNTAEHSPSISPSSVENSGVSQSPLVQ
Description: ligand binding assay, RARβ. The following applies: for Kd: Table 9 (Formula F), read-out: RAR β Kd; for Ki: read-out: RAR Bind. Ki β.
Excerpt: as §1, §2

The target in test [3] is T3, RARα (Homo sapiens, UniProt P10276).
T3 sequence (P10276 1-462): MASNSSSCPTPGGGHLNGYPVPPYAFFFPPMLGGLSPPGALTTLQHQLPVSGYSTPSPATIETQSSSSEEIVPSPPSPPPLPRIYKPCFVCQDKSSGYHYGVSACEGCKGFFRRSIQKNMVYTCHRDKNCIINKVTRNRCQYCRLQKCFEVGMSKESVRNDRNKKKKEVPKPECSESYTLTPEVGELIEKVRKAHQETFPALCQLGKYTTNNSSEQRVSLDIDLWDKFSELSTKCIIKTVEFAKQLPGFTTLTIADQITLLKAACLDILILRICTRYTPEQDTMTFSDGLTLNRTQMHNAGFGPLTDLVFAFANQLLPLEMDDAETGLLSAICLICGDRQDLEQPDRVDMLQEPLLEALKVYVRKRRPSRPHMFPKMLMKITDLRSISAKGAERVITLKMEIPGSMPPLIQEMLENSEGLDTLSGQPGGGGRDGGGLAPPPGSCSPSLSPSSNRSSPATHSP
Description: ligand binding assay, RARα. The following applies: for Kd: Table 9 (Formula F), read-out: RAR α Kd; for Ki: read-out: RAR Bind. Ki α.
Excerpt: as §1, §2

Test [4] addresses T4, RARγ (Homo sapiens, UniProt P13631).
T4 sequence (P13631 1-454): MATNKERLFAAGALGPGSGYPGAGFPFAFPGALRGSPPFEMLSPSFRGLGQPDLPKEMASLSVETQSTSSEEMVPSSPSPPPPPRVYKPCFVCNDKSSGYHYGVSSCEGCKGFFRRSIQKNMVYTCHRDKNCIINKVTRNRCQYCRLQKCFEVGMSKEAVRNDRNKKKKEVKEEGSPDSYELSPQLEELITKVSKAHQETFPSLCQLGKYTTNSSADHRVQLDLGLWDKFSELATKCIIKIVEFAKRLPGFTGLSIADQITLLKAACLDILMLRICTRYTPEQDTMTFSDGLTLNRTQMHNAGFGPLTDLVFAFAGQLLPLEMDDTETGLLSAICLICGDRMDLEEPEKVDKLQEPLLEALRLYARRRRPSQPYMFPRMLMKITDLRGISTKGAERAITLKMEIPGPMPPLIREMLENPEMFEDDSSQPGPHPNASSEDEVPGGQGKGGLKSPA
Description: ligand binding assay, RARγ. The following applies: for Kd: Table 9 (Formula F), read-out: RAR γ Kd; for Ki: read-out: RAR Bind. Ki γ.
Excerpt: as §1, §2

The target of test [5] is T5, RXRα (Homo sapiens, UniProt P19793).
T5 construct: expressed in transfected cells
T5 sequence (P19793 1-462): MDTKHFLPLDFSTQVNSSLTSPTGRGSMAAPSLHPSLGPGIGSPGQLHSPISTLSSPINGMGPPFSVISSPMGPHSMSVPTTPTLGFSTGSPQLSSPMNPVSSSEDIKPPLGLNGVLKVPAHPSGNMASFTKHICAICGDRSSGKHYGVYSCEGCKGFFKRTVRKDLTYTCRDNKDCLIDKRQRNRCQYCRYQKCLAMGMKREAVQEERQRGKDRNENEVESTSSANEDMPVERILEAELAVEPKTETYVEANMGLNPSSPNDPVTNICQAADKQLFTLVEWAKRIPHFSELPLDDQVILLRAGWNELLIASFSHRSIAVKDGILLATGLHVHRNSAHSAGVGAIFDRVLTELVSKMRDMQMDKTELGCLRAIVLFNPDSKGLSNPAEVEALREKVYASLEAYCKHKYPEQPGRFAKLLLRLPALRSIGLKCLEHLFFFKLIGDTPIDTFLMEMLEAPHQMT
Description: ligand binding assay, RXRα. The following applies: for Kd: Table 9 (Formula F), read-out: RXR α Kd; for Ki: read-out: RXR Bind Ki α.
Excerpt: as §1, §2

The target of test [6] is T1, RXRβ. Description: holoreceptor transactivation assay, RXRβ. It counts as cell-based.
Excerpt: as §1
(§3) Efficacy in a transactivation assay is expressed as a percentage of the maximum potency attained by the compound compared to a standard which, in this case, is the compound named (2E,4E,1′S,2′S)-3-methyl-5-[2′-methyl-2′-(5,5,8,8-tetramethyl-5,6,7,8-tetrahydro-naphthalen-2-yl)-cyclopropyl]-penta-2,4-dienoic acid. This standard compound is described in U.S. Pat. No. 6,114,533.
(§4) The specification of this application for patent is organized in several sections in accordance with structural Formulas A through F each of which discloses a group of preferred compounds within the scope of the invention. Tables that disclose the activity of certain exemplary compounds of the invention in the above-described RXR receptor transactivation and binding assays are found in the corresponding sections. […] The transactivation data pertaining to the activation of RXR receptors were obtained in the holoreceptor assay.
as §2

Test [7] addresses T5, RXRα. The test is described as follows: holoreceptor transactivation assay, RXRα. It counts as cell-based.
Excerpt: as §1, §3, §4, §2

The term Kd denotes a measure of binding affinity in units of concentration. On to `CC(/C=C/C(F)=C(/C)c1cc2c(c(Br)c1OC(C)C)C(C)(C)CC=C2C(C)(C)C)=C\C(=O)O` [Compound A-175, (2E,4E,6E)-7-(4 Bromo-8-tert-butyl-3-isopropoxy-5,5-dimethyl-5,6 dihydro-naphthalen-2-yl)-6-fluoro-3-methyl-octa-2,4,6-trienoic acid], for which the dissociation constant Kd was 31 nM in test [1]; 280 nM in test [2]; 458 nM in test [3]; 866 nM in test [4]; 9 nM in test [5].
Usually Ki stands for the equilibrium dissociation constant of an inhibitor or competing ligand from its target. For orientation: EC50 means the concentration giving half of the maximal effect. With `CCOc1cc2c(cc1\C(C)=C/C=C/C(C)=C/C(=O)O)C(C(C)C)=CC(C)(C)O2` [Compound 47, 7-(7-Ethoxy-4-isopropyl-2,2-dimethyl-2H-chromen-6-yl)-3-methyl-octa-2E,4E,6Z-trienoic acid], the Ki in test [1] was 150 nM; in test [2] it was 3900 nM; in test [3], above 10000 nM; in test [5], 15 nM. Further, the EC50 in test [6] (holoreceptor transactivation, read-out: RXR Trans. EC50 β) came to 288 nM. Further, the “RXR Trans. efficacy (number in parentheses) β” value in test [6] (percentage compared to the standard compound) was determined as 6%.
On to `CCCOc1cc2c(cc1\C(C)=C(F)/C=C/C(C)=C/C(=O)O)C(C(C)C)=CC(C)(C)O2` [Compound 125, (2E,4E,6E) 6-Fluoro-7-(4-isopropyl-2,2-dimethyl-7-propoxy-2H-chromen-6-yl)-3-methyl-octa-2,4,6-trienoic acid], for which the Ki in test [1] came to 73 nM; in test [2] it was 3 nM; in test [3] it was 12 nM; in test [4] it was 0.043 µM; in test [5] it was 8 nM.
In the case of `CCCCOc1cc2c(cc1\C(C)=C(F)/C=C/C(C)=C/C(=O)O)C(C(C)C)=CC(C)(C)O2` [Compound 126, (2E,4E,6E)-7-(7-Butoxy-4-isopropyl-2,2-dimethyl-2H-chromen-6-yl)-6-fluoro-3-methyl-octa-2,4,6-trienoic acid], the inhibitory constant (Ki) in test [1] turned out to be 59 nM; in test [2] it was 522 nM; in test [3], 860 nM; in test [4] it was 3 µM; in test [5], 8 nM.
Take `CCCOc1c(\C(C)=C(F)/C=C/C(C)=C/C(=O)O)cc2c(c1Br)C(C)(C)CC=C2C(C)C` [Compound A-173, (2E,4E,6E)-7-(4-Bromo-8-isopropyl-5,5-dimethyl-3-propoxy-5,6-dihydro-nahthalen-2-yl)-6-fluoro-3-methyl-octa-2,4,6-trienoic acid]: the Kd in test [1] came out at 11 nM; in test [2] it was 192 nM; in test [3], 91 nM; in test [4] it was 810 nM; in test [5] it was 2 nM. In addition, the EC50 in test [7] (holoreceptor transactivation, read-out: RXR Trans. EC50 α) amounted to 1 nM. Also, in test [7] (percentage compared to the standard compound, read-out: RXR Trans. efficacy (number in parentheses) α), the Emax was found to be 5%.
Take `CCOc1cc2c(cc1\C(C)=C(F)/C=C/C(C)=C/C(=O)O)C(C(C)C)=CC(C)(C)O2` [Compound 124, (2E,4E,6E)-7-(7-Ethoxy-4-isopropyl-2,2-dimethyl-2H-Chromen-6-yl)-6-fluoro-3-methyl-octa-2.46-trienoic acid]: the Ki in test [1] worked out at 42 nM; in test [2] it was 1000 nM; in test [3], 523 nM; in test [4] it was 3.3 µM; in test [5], 6 nM.
